Experimental data published in patent publication US20060216346A1, “Dosage form containing (s)-pantoprazole as active ingredient” (priority 2003, published 2006).
Read-outs that look alike come from different tables or passages of the source.

What was measured:
Dissolution rate = format: physicochemical; details: compared to the racemic pantoprazole magnesium dihydrate
Description: (§1) This absorption of water is reversible, so that it is difficult to adjust an exact water content.

[1] = Stability of the salt at 70° C. for one week; format: physicochemical; details: for discolouration and decomposition: identical conditions
Description: Pantoprazole is the INN (International Nonproprietary Name) for the compound 5-difluoromethoxy-2-[(3,4-dimethoxy-2-pyridinyl)methylsulfinyl]-1H-benzimidazole. The magnesium salt of pantoprazole is the chemical compound magnesium bis[5-[difluoromethoxy]-2-[[3,4-dimethoxy-2-pyridinyl]methyl]sulfinyl]-1H-benzimidazolide]. The magnesium salt of (S)-pantoprazole [hereinafter also referred to as (−)-pantoprazole] and its hydrates in connection with the invention refers to the compound magnesium (−)-bis{[5-(difluoromethoxy)]-2-[(3,4-dimethoxy-2-pyridinyl)methylsulphinyl]-1H-benzimidazolide} including hydrates thereof. Here, particular emphasis is given to hydrates, which, after drying under reduced pressure at 50° C., have a water content of from 4.0 to 6.7% (by weight), in particular from 4.0 to 5.5%. Particular preference is given to the hydrate form which has a water content of from 4.0 to 5.0%, in particular from 4.2 to 4.4%, which corresponds to a dihydrate. The magnesium salt and its hydrates have highly surprising stability properties, making it a particularly suitable candidate for use in solid or oral dosage forms.
as §1

Wettability = format: physicochemical; details: compared to the racemic pantoprazole magnesium dihydrate
Description: as §1

Solubility at pH 7.4 = format: physicochemical; details: at pH 7.4, compared to the racemic pantoprazole magnesium dihydrate
Description: as §1

[2] = Hygroscopicity / absorption of water; format: physicochemical
Description: as §1
Drying is carried out in a vacuum drying cabinet at <50 mbar and 40-45° C. [It is also possible to dispense with drying and to use the moist product (having an MIBK content of 10-20%) directly for step B]. The white-beige crystalline product obtained after drying is hygroscopic. The water content is from 2 to 12%. The absorption and release of water are reversible. Yield: 34 g=90% of theory (based on anhydrous product). Specific rotation: aD^20+=−95 (c=0.5, measured in methanol, sodium salt having a water content of 12%). m.p.: 145-165° C. (decomposition, sodium salt having a water content of 2%); 102-109° C. (decomposition, sodium salt having a water content of 12%).

[3] = in comparison to pantoprazole itself or to pantoprazole sodium sesquihydrate; WO00/10995; cited from earlier work

| Structure (SMILES) | dissolution rate (Dissolution rate) | stability ([1]; at 70° C., one week) | discolouration and decomposition ([1]; at 70° C., one week) | stability properties ([1]; compared to the sodium salt of (−)-pantoprazole) | wettability (Wettability) | solubility (Solubility at pH 7.4) | hygroscopicity [2] | hygroscopicity ([2]; listed as (−)-Pantoprazole-Na) | stability properties [3] |
| --- | --- | --- | --- | --- | --- | --- | --- | --- | --- |
| COc1ccnc(C[S+]([O-])c2nc3cc(OC(F)F)ccc3[n-]2)c1OC.COc1ccnc(C[S+]([O-])c2nc3cc(OC(F)F)ccc3[n-]2)c1OC.O.O.[Mg+2] (single isomer, unassigned; (-)) [(−)-pantoprazole magnesium dihydrate, Magnesium (−)-bis{[5-(difluoromethoxy)]-2-[(3,4-dimethoxy-2-pyridinyl)methylsulphinyl]-1H-benzimidazolide}dihydrate] | considerably higher | completely stable | virtually no discolouration or decomposition | considerably improved stability properties | better | better | non-hygroscopic |  |  |
| COc1ccnc(C[S+]([O-])c2nc3cc(OC(F)F)ccc3[n-]2)c1OC.[Na+] (single isomer, unassigned; (-)) [(−)-pantoprazole sodium] |  |  | changes to brown, with formation of considerable amounts of decomposition products |  |  |  | absorbs water depending on drying conditions and atmospheric humidity | hygroscopic |  |
| COc1ccnc(C[S+]([O-])c2nc3cc(OC(F)F)ccc3[n-]2)c1OC.COc1ccnc(C[S+]([O-])c2nc3cc(OC(F)F)ccc3[n-]2)c1OC.[Mg+2] (centres unmarked) [magnesium bis[5-[difluoromethoxy]-2-[[3,4-dimethoxy-2-pyridinyl]methyl]sulfinyl]-1H-benzimidazolide]] |  |  |  |  |  |  |  |  | improved stability properties |
